According to patent US20110076274A1, “MATERIALS AND METHODS RELATING TO A G-PROTEIN COUPLED RECEPTOR” (priority 2008, published 2011):
Read-outs that look alike come from different tables or passages of the source.

What was measured:
CB1 [1] = target: T1, CB1 (Homo sapiens, UniProt P21554); settings: Ryberg et al., 2007, read-out: GTPγS EC50; cited from earlier work
CB2 [2] = target: T2, CB2 (Homo sapiens, UniProt P34972); settings: Ryberg et al., 2007, read-out: GTPγS EC50; cited from earlier work
T2 sequence (P34972 whole entry, species assumed): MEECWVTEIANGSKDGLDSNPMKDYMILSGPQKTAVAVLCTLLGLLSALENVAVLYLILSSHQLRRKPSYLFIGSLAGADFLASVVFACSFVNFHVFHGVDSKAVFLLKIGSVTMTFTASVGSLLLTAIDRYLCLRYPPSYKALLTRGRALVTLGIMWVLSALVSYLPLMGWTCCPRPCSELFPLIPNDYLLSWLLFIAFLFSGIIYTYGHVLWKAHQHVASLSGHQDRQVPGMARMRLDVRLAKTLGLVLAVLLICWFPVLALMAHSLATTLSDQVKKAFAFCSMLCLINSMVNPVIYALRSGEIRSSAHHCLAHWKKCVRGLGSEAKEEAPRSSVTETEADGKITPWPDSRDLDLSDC

GPR55 [3] = target: T3, GPR55 (Homo sapiens, UniProt Q9Y2T6); settings: footnote of Table 1
T3 sequence (Q9Y2T6 whole entry): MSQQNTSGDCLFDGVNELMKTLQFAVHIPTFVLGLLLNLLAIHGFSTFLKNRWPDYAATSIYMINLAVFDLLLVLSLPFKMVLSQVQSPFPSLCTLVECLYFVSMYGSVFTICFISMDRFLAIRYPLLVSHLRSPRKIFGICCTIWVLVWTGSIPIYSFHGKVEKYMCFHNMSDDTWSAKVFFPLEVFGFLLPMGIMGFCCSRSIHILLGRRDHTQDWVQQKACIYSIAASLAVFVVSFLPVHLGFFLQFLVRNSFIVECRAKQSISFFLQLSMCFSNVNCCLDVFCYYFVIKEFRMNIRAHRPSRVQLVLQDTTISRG

CB2 [4] = target: T2, CB2; settings: cited from earlier work
MDA-MB231 subclone = experiment: Boyden chamber chemotaxis assay, Protocol I (ligand concentration gradient); type: cell-based, human; settings: serum starved cells; test drug (1 μM per Protocol I) in 0.01% DMSO in lower wells; 4 hours
Protocol: 10 μl of the resulting cell suspension was transferred to a haemocytometer and the number of cells per ml of suspension was calculated from the counted cell number. Serum free medium was added to the cell suspension in a quantity necessary to bring the suspension to a cell number of 1×10^6 cells per ml. […]

CB1 [5] = target: T1, CB1; settings: cited from earlier work
GPR55 [6] = target: T3, GPR55; settings: cited from earlier work
human osteoclasts = experiment: Cell polarisation (F-actin rings) and resorption by human osteoclasts; type: cell-based
From the text: Number of F-actin rings in osteoclast cultures, expressed as percentage of vehicle (0.1% DMSO) control±SEM (n=4-7 experiments with five replicates for each). ** P<0.01 compared to control, ANOVA with Dunnett's multiple comparison test.

GPR55 [7] = target: T3, GPR55; settings: cited from earlier work; for EC50: source per value in footnotes (Johns 2007, Ryberg 2007, Brown 2007), read-out: GTPγS EC50
[8] = system: control (empty vector transfected) MCF7 cells; experiment: Cultrex Cell Invasion Assay, empty vector transfected MCF7; type: cell-based, human
Protocol: (§1) Cell were cultured to 80% confluence then serum starved overnight prior to beginning the assay. On ice, a 0.5×BME stock solution was prepared from the 5× stock in a conical tube and inverted to mix. 100 μl of BME stock solution was aliquoted into each well of the 24 well plate and the chamber incubated at 37° C. overnight. The following morning cells were harvested, washed once using 1× wash buffer, counted, and re-suspended to a density of 5×10^5 cells ml^−1. The top chamber was then carefully aspirated, taking care not to let chambers dry out, and 100 μl of cells per well added to the top chamber. 500 μl of media per well (with or without chemoattractant) was then added to the lower wells of the chamber. The chamber was then assembled and incubated at 37° C. in a humidified environment for 24 hours. The following day the upper chamber was carefully aspirated and washed with 100 μl of 1× wash buffer, and lower wells washed with 500 μl of wash buffer. 12 μl of Calcein-AM solution was added to 12 mL of cell dissociation fluid, and 500 μl of this solution added to the lower chamber. The chamber was then re-assembled and incubated at 37° C. for one hour. The upper chamber was then removed, and dissolved Calcein-AM was read at 485 nm excitation, 520 nm emission. […]

[9] = system: GPR55 over-expressing MCF7 cells; experiment: Cultrex Cell Invasion Assay, GPR55 over-expressing MCF7; type: cell-based, human
Protocol: as §1

MDA-MB231 = experiment: Boyden chamber chemotaxis assay, CBD as chemoattractant (FIG. 8); type: cell-based, human; settings: serum starved cells; CBD with 0.01% DMSO
Protocol: (§2) Cells used for all chemotaxis assays were bathed in their respective serum-free media and incubated for 19 hours prior to experimentation. The serum starved cells were washed with 5 ml PBS and dissociated from their growth plate using 5 ml of non-enzymatic cell dissociation solution. 5 ml of the respective serum free medium was added after dissociation of the cells, and the cell suspension was transferred to a universal container and centrifuged at 2000 rpm for 5 minutes. The supernatant fluid was discarded and the remaining cell pellet was re-suspended in 2 ml of serum free medium.
(§3) 10 μl of the resulting cell suspension was transferred to a haemocytometer and the number of cells per ml of suspension was calculated from the counted cell number. Serum free medium was added to the cell suspension in a quantity necessary to bring the suspension to a cell number of 1×10^6 cells per ml.
Solutions of 10% FBS (with 0.01% DMSO vehicle), 0.01% DMSO vehicle control and 1 μM of test drug (O-1602 in 0.01% DMSO vehicle), were prepared. […]
(§4) Migrated cells were counted using a Leitz microscope. Individual wells and their borders were visualised using a 10× objective lens and cells were then counted using a 40× objective lens. Cells found in one quarter of three non-overlapping 40× fields within each migration well were counted. The same fields were chosen in every well counted. […]

MDA-MB-231 cells [10] = experiment: Cultrex Cell Invasion Assay towards FBS; type: cell-based, human; settings: CBD 1 μM pre-incubation; 24 hours
Protocol: Cell were cultured to 80% confluence then serum starved overnight prior to beginning the assay. On ice, a 0.5×BME stock solution was prepared from the 5× stock in a conical tube and inverted to mix. 100 μl of BME stock solution was aliquoted into each well of the 24 well plate and the chamber incubated at 37° C. overnight. The following morning cells were harvested, washed once using 1× wash buffer, counted, and re-suspended to a density of 5×10^5 cells ml^−1. The top chamber was then carefully aspirated, taking care not to let chambers dry out, and 100 μl of cells per well added to the top chamber. 500 μl of media per well (with or without chemoattractant) was then added to the lower wells of the chamber. The chamber was then assembled and incubated at 37° C. in a humidified environment for 24 hours. The following day the upper chamber was carefully aspirated and washed with 100 μl of 1× wash buffer, and lower wells washed with 500 μl of wash buffer. 12 μl of Calcein-AM solution was added to 12 mL of cell dissociation fluid, and 500 μl of this solution added to the lower chamber. The chamber was then re-assembled and incubated at 37° C. for one hour. The upper chamber was then removed, and dissolved Calcein-AM was read at 485 nm excitation, 520 nm emission.

MDA-MB-231 cells [11] = experiment: alamarBlue assay of cell viability; type: cell-based, human
MDA-MB231 cells = experiment: Boyden chamber migration towards FBS, Protocol II (pre-treatment of cells); type: cell-based, human; settings: for Tumour cell chemotaxis (migration) to FBS after pre-incubation: 1 μM pre-incubation 30 minutes, 10% FBS, no compound gradient, 4 hours
Protocol: as §2, §3
(§5) Two aliquots of the 1×10^6 cells/ml, cell suspension were prepared, and quantities of 0.1% DMSO and […] (both with 0.1% DMSO vehicle) were added to one aliquot each, to bring the cell suspension concentrations to 0.01% DMSO and 1 μM test compound (with 0.01% DMSO vehicle). The cell suspensions were incubated with each compound for 30 minutes at 37° C. in 5% CO2. […]
as §4
The results for all assays done with each individual drug type were pooled by calculating the mean number of cells migrating in 0.01% DMSO vehicle control wells. The cell number for each individual well was then expressed as a percentage of the vehicle mean.

GPR55 [12] = target: T3, GPR55; settings: Oka et al., 2007, read-out: ERK Phosphorylation EC50; cited from earlier work
[13] = system: MCF7 cells transiently over-expressing GPR55; experiment: Boyden chamber chemotaxis assay, GPR55 over-expressing MCF7; type: cell-based, human; settings: LPI pre-incubation 1 μM
Protocol: as §2, §3, §5

[14] = system: vector transfected MCF7 cells; experiment: Boyden chamber chemotaxis assay, vector transfected MCF7; type: cell-based, human; settings: LPI pre-incubation 1 μM
Protocol: as §2, §3, §5

MG-63 cells = experiment: Endocannabinoid levels in MG-63 cells treated with PTH; type: cell-based, human
Protocol: Cells were washed in PBS and treated for 90 minutes with 200 ug/ml LPS. Values represent the mean±SEM from 3 separate donors. […] Levels of anandamide were undetectable in two control samples which precludes statistical analysis. (C) 2-AG levels in MG-63 cells treated with PTH. Cells were treated for the times indicated with 40 nM or 100 nM PTH. The results are expressed as percentage of control and are the means±SEM (n=2-4 experiments, duplicate samples for each), ** P<0.01 compared to control, ANOVA with Dunnett's multiple comparison test.

T1 sequence (P21554 whole entry, species assumed): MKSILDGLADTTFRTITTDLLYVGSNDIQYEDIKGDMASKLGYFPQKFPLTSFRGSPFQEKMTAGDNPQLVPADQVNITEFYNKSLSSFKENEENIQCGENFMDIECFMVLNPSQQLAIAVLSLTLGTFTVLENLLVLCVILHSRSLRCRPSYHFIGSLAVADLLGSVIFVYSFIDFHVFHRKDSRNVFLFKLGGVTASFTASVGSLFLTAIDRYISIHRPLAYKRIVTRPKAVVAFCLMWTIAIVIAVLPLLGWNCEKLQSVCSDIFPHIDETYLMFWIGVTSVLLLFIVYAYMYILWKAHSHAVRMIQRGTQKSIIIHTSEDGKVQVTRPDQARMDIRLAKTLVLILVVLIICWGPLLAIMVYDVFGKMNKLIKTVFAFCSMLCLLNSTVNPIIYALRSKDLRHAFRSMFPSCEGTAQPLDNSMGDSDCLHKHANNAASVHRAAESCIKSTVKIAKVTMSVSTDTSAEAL

## C=C(C)[C@@H]1CCC(C)=C[C@H]1c1c(C)cc(O)cc1O [O-1602]
CB1 [1]
  EC50: > 30 µM
CB2 [2]
  EC50: > 30 µM
GPR55 [3]
  Selectivity for GPR55 versus CB1 and CB2 (in words): Compounds such as O-1602 and LPI are therefore thought to be relatively selective GPR55 agonists, whilst AEA has a broad specificity.
CB2 [4]
  Drug action on receptors: CB2: No action
MDA-MB231 subclone
  Cell migration compared to vehicle control (chemoattractant effect): significant increase in cell migration
CB1 [5]
  Drug action on receptors: CB1: No action^3
GPR55 [6]
  Drug action on receptors: GPR55: Agonist

## CCCCCCC(C)(C)c1ccc([C@@H]2C[C@H](O)CC[C@H]2CCCO)c(O)c1 [CP55940, (−)-cis-3-[2-hydroxy-4-(1,1-dimethylheptyl)phenyl]-trans-4-(3-hydroxypropyl)cyclohexanol]
GPR55 [6]
  Drug action on receptors: GPR55: agonists

## CCCCC/C=C\C/C=C\C/C=C\C/C=C\CCCC(=O)NCCO [AEA, anandamide]
Human osteoclasts; 10 nM to 1 μM
  F-actin ring number: did not result in a significant change
  Resorption: significantly stimulate
CB2 [4]
  Drug action on receptors: CB2: Agonist
MDA-MB231 subclone
  Cell migration compared to vehicle control (chemoattractant effect): significant increase in cell number
GPR55 [7]
  EC50: 0.018 µM
GPR55 [6]
  Drug action on receptors: GPR55: Agonist

## C=C(C)[C@@H]1CCC(C)=C[C@H]1c1c(O)cc(CCCCC)cc1O [CBD, Cannabidiol]
[8]
  Basal invasion: no effect
[9]
  FBS-induced invasion: significantly inhibited
MDA-MB231
  Tumour cell migration compared to control (chemoattractant effect): no effect on tumour cell migration
MDA-MB-231 cells [10]
  Tumour cell invasion towards FBS after pre-incubation: significantly attenuated
CB1 [5]
  Drug action on receptors: CB1: Antagonist^7
GPR55 [7]; antagonist, Brown, 2007, read-out: GTPγS IC50
  IC50: 0.35 µM
MDA-MB-231 cells [11]; 1 μM treatment for 24 hours (invasion assay)
  Cytotoxic action (cell viability): no cytotoxic action
MDA-MB-231 cells [11]; concentrations up to 10 μM, treatment for 4 hours (migration assay)
  Cytotoxic action (cell viability): no cytotoxic action
MDA-MB231 cells
  Tumour cell chemotaxis (migration) to FBS after pre-incubation: significantly inhibits
MDA-MB231 cells; co-incubation LPI (1 μM) combined with CBD (1 μM)
  Effect on LPI-increased chemotaxis to FBS: prevented
GPR55 [6]
  Drug action on receptors: GPR55: Antagonist^2

## CCCCCc1cc(O)c2c(c1)OC(C)(C)[C@@H]1CCC(C)=C[C@@H]21 [THC, Δ-9-Tetrahydrocannabinol]
GPR55 [6]
  Drug action on receptors: GPR55: agonists

## CCCn1c(C)c(C(=O)c2cccc3ccccc23)c2ccccc21 [JWH015]
GPR55 [7]
  EC50: 0.004 µM
GPR55 [6]
  Drug action on receptors: GPR55: Agonist

## lysophosphatidylinositol [LPI]
GPR55 [3]
  Selectivity for GPR55 versus CB1 and CB2 (in words): Compounds such as O-1602 and LPI are therefore thought to be relatively selective GPR55 agonists, whilst AEA has a broad specificity.
GPR55 [12]
  EC50: ~0.2 µM
[13]
  FBS-induced migration: enhanced
[14]
  Migration towards FBS: unaffected
MDA-MB231 cells
  Tumour cell chemotaxis (migration) to FBS after pre-incubation: significantly increases
GPR55 [6]
  Drug action on receptors: GPR55: Agonist^6

## CCCCC/C=C\C/C=C\C/C=C\C/C=C\CCCC(=O)OC(CO)CO [2-AG]
Human osteoclasts; 10 nM and 100 nM
  Resorptive activity: significant increase
Human osteoclasts; 10 nM and 100 nM, 5 days
  Cell polarisation i.e. number of F-actin rings: significant increase
Human osteoclasts; 1 μM
  Stimulatory effect on polarisation and resorption at higher concentration: lost

B1: PTH: PTH, 40 nM or 100 nM, activates the PTH receptor (peptide, UniProt P01270 32-115, looked up)
Parathyroid hormone: SVSEIQLMHNLGKHLNSMERVEWLRKKLQDVHNFVALGAPLAPRDAGSQRPRKKEDNVLVESHEKSLGEADKADVNVLTKAKSQ
modifications: Parathyroid hormone
MG-63 cells; prolonged treatment with 40 nM or 100 nM PTH
  Levels of 2-AG detected in MG-63 cells: significant increase
MG-63 cells; prolonged treatment with PTH, data not shown
  Levels of anandamide detected in MG-63 cells: no change
